Experimental data from patent US11458138B2 (Novartis AG, priority 2017, dated 2022).

Tests used:
[1] = target: LATS1 (Homo sapiens (Human), UniProt O95835); assay: LATS1 biochemical assay (Table 1A, Compound Examples 1-290; method in the earlier part)
[2] = system: Phospho-YAP (Ser127) in JHH-5 cells; assay: pYAP HTRF Assay (JHH-5 cells); assay type: cell-based; settings: 2 hours
Experimental: Briefly, JHH-5 cells are suspended at 0.48×10^6 cells/ml in William's E medium without phenol-red (Thermo Fisher Scientific Gibco catalog number A1217601) supplemented with 10% (v/v) heat-inactivated fetal bovine serum (Thermo Fisher Scientific Gibco catalog number 16140071) and penicillin-streptomycin at 100 U/ml each (Thermo Fisher Scientific Gibco catalog number 15140122). Cells are dispensed into 384well clear bottom culture plates (50 ul/well, at 24000 cells per well, Greiner catalog number 781091), and incubated for 24 hours in a cell culture incubator at 37° C. Test compounds are transferred into culture plates containing JHH-5 cells using an Echo550 (Labcyte) acoustic dispenser (50 nl/well), followed by incubation for 2 hours at 37° C. Lysis buffer (part of CisBio kit catalog number 64YAPPEI) is added to the assay plates as a four-fold concentrate (corresponding to 16 ul/well) and incubated for 30 minutes at room temperature with agitation. Lysate is transferred from culture plates into white low-volume 384well assay plates (12 ul/well, Greiner catalog number 784075), followed by the addition of 3 ul/well of detection antibodies (part of CisBio kit catalog number 64YAPPEI: 1:40 dilution of each pYAP d2 antibody and pYAP cryptate antibody stocks). The plates are sealed and incubated overnight (18 hours) at room temperature protected from light. Plates are read on an EnVision plate reader (Perkin Elmer) at emission wavelengths of 665 nm and 620 nm. The HTRF signal ratio x per well is calculated as [x=Signal(665 nm)/Signal(620 nm)×10000] as specified in the manufacturer's protocol.

[3] = system: YAP nuclear translocation in HaCaT cells; assay: YAP Translocation Assay (HaCaT Cells); assay type: cell-based, human; settings: 24 hours
How it was run: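 HaCaT cells (20,000/well) in DMEM + 10% FBS were plated overnight at 37° C, then exposed to compound for 24 h at 37° C. Cells were fixed with PFA, permeabilized with 0.1% Triton/1.5% BSA and imaged by high-content imaging.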

[4] = system: Phospho-YAP (SER127) in HaCaT cells; assay: pYAP HTRF Assay (HaCaT Cells); assay type: cell-based, human; settings: 2 hours
How it was run: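 HaCaT cells at 5500 cells/well were cultured 48 hours at 37° C, then treated with compound for 2 hours. Phospho-YAP (Ser127) was detected by HTRF after an overnight (20 hrs) room-temperature incubation, read as the 665 nm/620 nm ratio.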

LATS1, sequence (O95835 whole entry, looked up): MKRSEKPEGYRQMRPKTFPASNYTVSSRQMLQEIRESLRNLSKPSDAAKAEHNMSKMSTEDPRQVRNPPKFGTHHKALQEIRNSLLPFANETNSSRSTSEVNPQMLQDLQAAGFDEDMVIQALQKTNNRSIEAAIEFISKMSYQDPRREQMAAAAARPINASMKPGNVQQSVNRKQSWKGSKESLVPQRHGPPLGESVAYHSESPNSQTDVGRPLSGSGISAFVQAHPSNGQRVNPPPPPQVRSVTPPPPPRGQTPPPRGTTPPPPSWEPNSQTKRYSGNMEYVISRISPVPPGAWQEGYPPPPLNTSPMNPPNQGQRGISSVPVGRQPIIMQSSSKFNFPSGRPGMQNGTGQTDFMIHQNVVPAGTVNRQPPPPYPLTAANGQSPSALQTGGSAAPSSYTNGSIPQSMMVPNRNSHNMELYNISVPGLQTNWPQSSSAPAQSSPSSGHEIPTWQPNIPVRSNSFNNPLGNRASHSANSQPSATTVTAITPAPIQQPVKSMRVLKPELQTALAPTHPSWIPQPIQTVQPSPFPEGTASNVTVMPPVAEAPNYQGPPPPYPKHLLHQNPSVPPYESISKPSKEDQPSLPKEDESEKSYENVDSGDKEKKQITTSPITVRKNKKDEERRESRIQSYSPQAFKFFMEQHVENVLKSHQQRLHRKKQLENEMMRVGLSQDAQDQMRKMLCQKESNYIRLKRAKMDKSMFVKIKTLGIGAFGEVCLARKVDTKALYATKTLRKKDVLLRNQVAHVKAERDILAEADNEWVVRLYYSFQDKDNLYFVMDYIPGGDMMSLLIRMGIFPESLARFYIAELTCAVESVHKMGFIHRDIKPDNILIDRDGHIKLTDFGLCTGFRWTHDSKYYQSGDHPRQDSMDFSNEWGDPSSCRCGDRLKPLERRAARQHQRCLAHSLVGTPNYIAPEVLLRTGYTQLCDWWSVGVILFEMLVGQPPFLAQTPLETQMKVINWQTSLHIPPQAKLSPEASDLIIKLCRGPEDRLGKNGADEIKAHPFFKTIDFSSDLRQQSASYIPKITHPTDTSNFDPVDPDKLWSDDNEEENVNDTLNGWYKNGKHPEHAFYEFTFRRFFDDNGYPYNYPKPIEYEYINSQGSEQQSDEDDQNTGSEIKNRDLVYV
LATS1, sequence (Q7L9L4 whole entry partner, looked up): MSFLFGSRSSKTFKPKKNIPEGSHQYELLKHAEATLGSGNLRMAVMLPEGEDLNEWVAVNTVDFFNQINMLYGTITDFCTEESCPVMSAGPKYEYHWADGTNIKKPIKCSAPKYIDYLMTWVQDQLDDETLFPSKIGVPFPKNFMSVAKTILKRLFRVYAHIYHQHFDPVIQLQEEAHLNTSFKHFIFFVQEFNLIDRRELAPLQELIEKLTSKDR

`COCC(C)(C)Nc1cc(-c2ccncc2)nc2cnccc12` [Example 258, N-(1-methoxy-2-methylpropan-2-yl)-2-(pyridin-4-yl)-1,7-naphthyridin-4-amine] was tested, and the IC50 [1] was 0.023 µM, the IC50 [2] was greater than 10 µM and the EC50 ([3]; Homo sapiens) was 9.92 µM.
With `CC[C@@H](C)Nc1cc(-c2ccncc2)nc2cnccc12` [Example 257, N-[(2R)-butan-2-yl]-2-(pyridin-4-yl)-1,7-naphthyridin-4-amine] the IC50 [1] was 0.022 µM, the IC50 [2] was greater than 10 µM and the EC50 ([3]; Homo sapiens) was greater than 20 µM.
`CCN(CC)c1cc(-c2ccncc2F)nc2cnccc12` [Example 275, N,N-diethyl-2-(3-fluoropyridin-4-yl)-1,7-naphthyridin-4-amine] showed an IC50 [1] of 0.011 µM, an IC50 [2] greater than 10 µM and an EC50 ([3]; Homo sapiens) of 15.1 µM.
For `CC(C)(C)Nc1cc(-c2ccnc(N)c2)nc2cnccc12` [Example 274, 2-(2-aminopyridin-4-yl)-N-tert-butyl-1,7-naphthyridin-4-amine], the IC50 [1] was 0.013 µM, the IC50 [2] was greater than 10 µM and the EC50 ([3]; Homo sapiens) was 17.3 µM.
In the case of `Cc1nccc2c(NC3(C)CC3)nc(-c3ccncc3)nc12` [Example 199, 8-methyl-N-(1-methylcyclopropyl)-2-(pyridin-4-yl)pyrido[3,4-d]pyrimidin-4-amine], the IC50 [1] is reported as 0.001 µM, the IC50 [2] is reported as 3.2 µM and the EC50 ([3]; Homo sapiens) is reported as 9.1 µM.
With `CC(C)(CNCC(=O)O)Nc1nc(-c2ccncc2)nc2cnccc12` [Example 30, 2-[(2-methyl-2-{[2-(pyridin-4-yl)pyrido[3,4-d]pyrimidin-4-yl]amino}propyl)amino]acetic acid] the IC50 [1] was 0.039 µM, the IC50 [2] was greater than 10 µM and the EC50 ([3]; Homo sapiens) was greater than 20 µM.
For `CC1(Nc2nc(-c3cnco3)nc3cnccc23)CC1` [Example 175, N-(1-methylcyclopropyl)-2-(1,3-oxazol-5-yl)pyrido[3,4-d]pyrimidin-4-amine], the IC50 ([4]; Homo sapiens) was greater than 10 µM, the IC50 [1] was 0.324 µM and the EC50 ([3]; Homo sapiens) was greater than 20 µM.
Compound `Fc1ccccc1Nc1nc(-c2ccncc2)nc2cnccc12` [Example 82, N-(2-fluorophenyl)-2-(pyridin-4-yl)pyrido[3,4-d]pyrimidin-4-amine] has an IC50 ([4]; Homo sapiens) greater than 100 µM, an IC50 [1] of 0.013 µM and an EC50 ([3]; Homo sapiens) greater than 20 µM.
In the case of `C[C@H]1CCC[C@H]1Nc1nc(-c2ccncc2)nc2cnccc12` (single isomer, unassigned) [Example 17a], the IC50 ([4]; Homo sapiens) is reported as 4.95 µM, the IC50 [1] is reported as 0.003 µM and the EC50 ([3]; Homo sapiens) is reported as 4.1 µM.
In the case of `CC1(Nc2nc(-c3ccnc(N)c3)nc3cnccc23)CC1` [Example 138, 4-{4-[(1-methylcyclopropyl)amino]pyrido[3,4-d]pyrimidin-2-yl}pyridin-2-amine], the IC50 ([4]; Homo sapiens) is reported as 3.37 µM, the IC50 [1] is reported as 0.002 µM and the EC50 ([3]; Homo sapiens) is reported as 9.07 µM.
`CCC(CO)Nc1nc(-c2ccncc2)nc2cnccc12` (stereo not drawn) [Example 78, 2-{[2-(pyridin-4-yl)pyrido[3,4-d]pyrimidin-4-yl]amino}butan-1-ol] was tested, and the IC50 ([4]; Homo sapiens) was 12.1 µM, the IC50 [1] was 0.011 µM and the EC50 ([3]; Homo sapiens) was 14.3 µM.
`CC1(Nc2nc(-c3ccnnc3)nc3cnccc23)CC1` [Example 174, N-(1-methylcyclopropyl)-2-(pyridazin-4-yl)pyrido[3,4-d]pyrimidin-4-amine] showed an IC50 ([4]; Homo sapiens) greater than 10 µM, an IC50 [1] of 0.197 µM and an EC50 ([3]; Homo sapiens) greater than 20 µM.
For `C#CC(C)(C)Nc1nc(-c2ccncc2)nc2cnccc12` [Example 69, N-(2-methylbut-3-yn-2-yl)-2-(pyridin-4-yl)pyrido[3,4-d]pyrimidin-4-amine], the IC50 ([4]; Homo sapiens) was 4.72 µM, the IC50 [1] was 0.003 µM and the EC50 ([3]; Homo sapiens) was 11.5 µM.
`CC1(Nc2nc(-c3cn[nH]c3)nc3cnccc23)CCC1` [Example 158, N-(1-methylcyclobutyl)-2-(1H-pyrazol-4-yl)pyrido[3,4-d]pyrimidin-4-amine] gave an IC50 ([4]; Homo sapiens) of 11.2 µM, an IC50 [1] of 0.008 µM and an EC50 ([3]; Homo sapiens) of 6.29 µM.
Compound `CCN(c1nc(-c2ccncc2F)nc2cnccc12)C(C)C` [Example 120, N-ethyl-2-(3-fluoropyridin-4-yl)-N-(propan-2-yl)pyrido[3,4-d]pyrimidin-4-amine] has an IC50 ([4]; Homo sapiens) of 2.14 µM, an IC50 [1] of 0.01 µM and an EC50 ([3]; Homo sapiens) of 2.93 µM.
Compound `CC(C)(Cc1ccc(F)cc1)Nc1nc(-c2ccncc2)nc2cnccc12` [Example 80, N-[1-(4-fluorophenyl)-2-methylpropan-2-yl]-2-(pyridin-4-yl)pyrido[3,4-d]pyrimidin-4-amine] has an IC50 ([4]; Homo sapiens) of 21.6 µM, an IC50 [1] of 0.011 µM and an EC50 ([3]; Homo sapiens) of 12.9 µM.
In the case of `Cn1nccc1-c1nc(NC2(C)CC2)c2ccncc2n1` [Example 172, 2-(1-methyl-1H-pyrazol-5-yl)-N-(1-methylcyclopropyl)pyrido[3,4-d]pyrimidin-4-amine], the IC50 ([4]; Homo sapiens) is reported as greater than 10 µM, the IC50 [1] is reported as 0.017 µM and the EC50 ([3]; Homo sapiens) is reported as greater than 20 µM.
For `CCC(C)(C)Nc1nc(-c2ccncc2)nc2cnccc12` [Example 63, N-(2-methylbutan-2-yl)-2-(pyridin-4-yl)pyrido[3,4-d]pyrimidin-4-amine], the IC50 ([4]; Homo sapiens) was 0.131 µM, the IC50 [1] was 0.001 µM and the EC50 ([3]; Homo sapiens) was 0.338 µM.
Compound `COc1ccc(Nc2nc(-c3ccncc3)nc3cnccc23)cc1` [Example 91, N-(4-methoxyphenyl)-2-(pyridin-4-yl)pyrido[3,4-d]pyrimidin-4-amine] has an IC50 ([4]; Homo sapiens) greater than 10 µM, an IC50 [1] of 0.148 µM and an EC50 ([3]; Homo sapiens) greater than 20 µM.
In the case of `C[C@@H](Nc1nc(-c2ccnn2C)nc2cnccc12)c1ccccc1` [Example 170, 2-(1-methyl-1H-pyrazol-5-yl)-N-[(1R)-1-phenylethyl]pyrido[3,4-d]pyrimidin-4-amine], the IC50 ([4]; Homo sapiens) is reported as greater than 10 µM, the IC50 [1] is reported as 1.28 µM and the EC50 ([3]; Homo sapiens) is reported as greater than 20 µM.
`CC1(Nc2nc(-c3ccc4[nH]ncc4c3)nc3cnccc23)CC1` [Example 143, 2-(1H-indazol-5-yl)-N-(1-methylcyclopropyl)pyrido[3,4-d]pyrimidin-4-amine] gave an IC50 ([4]; Homo sapiens) greater than 10 µM, an IC50 [1] of 0.007 µM and an EC50 ([3]; Homo sapiens) greater than 20 µM.
`OC1(CNc2nc(-c3ccncc3)nc3cnccc23)CCCC1` [Example 87, 1-({[2-(pyridin-4-yl)pyrido[3,4-d]pyrimidin-4-yl]amino}methyl)cyclopentan-1-ol] showed an IC50 ([4]; Homo sapiens) of 51.6 µM, an IC50 [1] of 0.03 µM and an EC50 ([3]; Homo sapiens) greater than 20 µM.
`NCCCCNc1nc(-c2ccncc2)nc2cnccc12` [Example 106, N-(4-aminobutyl)-2-(pyridin-4-yl)pyrido[3,4-d]pyrimidin-4-amine] gave an IC50 ([4]; Homo sapiens) of 14.2 µM, an IC50 [1] of 0.003 µM and an EC50 ([3]; Homo sapiens) greater than 20 µM.
Work on `CC[C@@H](C)Nc1nc(-c2ccncc2)nc2cnccc12` (single isomer, unassigned) [Example 68b] yielded an IC50 ([4]; Homo sapiens) of 4.27 µM, an IC50 [1] of 0.002 µM and an EC50 ([3]; Homo sapiens) of 2.92 µM.
In the case of `Cn1cc(-c2nc(NC3(C)CC3)c3ccncc3n2)cn1` [Example 196, 2-(1-methyl-1H-pyrazol-4-yl)-N-(1-methylcyclopropyl)pyrido[3,4-d]pyrimidin-4-amine], the IC50 ([4]; Homo sapiens) is reported as greater than 10 µM, the IC50 [1] is reported as greater than 2.5 µM and the EC50 ([3]; Homo sapiens) is reported as greater than 20 µM.
With `Cn1nccc1-c1nc(NC2(CO)CCC2)c2ccncc2n1` [Example 187, (1-{[2-(1-methyl-1H-pyrazol-5-yl)pyrido[3,4-d]pyrimidin-4-yl]amino}cyclobutyl)methanol] the IC50 ([4]; Homo sapiens) was greater than 100 µM, the IC50 [1] was 0.016 µM and the EC50 ([3]; Homo sapiens) was greater than 20 µM.
For `CC(CO)(CO)Nc1nc(-c2ccncc2)nc2cnccc12` [Example 23, 2-methyl-2-{[2-(pyridin-4-yl)pyrido[3,4-d]pyrimidin-4-yl]amino}propane-1,3-diol], the IC50 ([4]; Homo sapiens) was 9.58 µM, the IC50 [1] was 0.01 µM and the EC50 ([3]; Homo sapiens) was 11.8 µM.
`CC1CCCC1Nc1nc(-c2ccncc2)nc2cnccc12` (single isomer, unassigned) [Example 17d] was tested, and the IC50 [4] was 0.402 µM, the IC50 [1] was 0.001 µM and the EC50 [3] was 1.72 µM.
`FC(F)(F)C1(Nc2nc(-c3cn[nH]c3)nc3cnccc23)CC1` [Example 188, 2-(1H-pyrazol-4-yl)-N-[1-(trifluoromethyl)cyclopropyl]pyrido[3,4-d]pyrimidin-4-amine] showed an IC50 ([4]; Homo sapiens) greater than 100 µM, an IC50 [1] of 0.017 µM and an EC50 ([3]; Homo sapiens) of 12 µM.
In the case of `CC(C)(Nc1nc(-c2ccncc2)nc2cnccc12)C1CC1` [Example 1, N-(2-cyclopropylpropan-2-yl)-2-(pyridin-4-yl)pyrido[3,4-d]pyrimidin-4-amine], the IC50 ([4]; Homo sapiens) is reported as 0.019 µM, the IC50 [1] is reported as 0.001 µM and the EC50 ([3]; Homo sapiens) is reported as 0.326 µM.
Compound `Cc1noc(C)c1-c1nc(NC2(C)CC2)c2ccncc2n1` [Example 153, 2-(dimethyl-1,2-oxazol-4-yl)-N-(1-methylcyclopropyl)pyrido[3,4-d]pyrimidin-4-amine] has an IC50 ([4]; Homo sapiens) greater than 10 µM, an IC50 [1] greater than 5 µM and an EC50 ([3]; Homo sapiens) greater than 20 µM.
Compound `Cc1ccccc1Nc1nc(-c2ccncc2)nc2cnccc12` [Example 89, N-(2-methylphenyl)-2-(pyridin-4-yl)pyrido[3,4-d]pyrimidin-4-amine] has an IC50 ([4]; Homo sapiens) greater than 100 µM, an IC50 [1] of 0.044 µM and an EC50 ([3]; Homo sapiens) greater than 100 µM.
